From patent publication US20220202905A1, “COMPOSITION FOR PREVENTING OR TREATING NEUROTROPHIC KERATITIS WHICH CONTAINS PACAP PEPTIDE OR STABILIZED PACAP PEPTIDE” (SENJU PHARMACEUTICAL CO., LTD., priority 2019, published 2022)
Blank lines part the entries; values can stand above or below the molecule they belong to. Square brackets hold non-standard residues; d marks the D form. Peptide text beside a SMILES is read from it. * marks the point of attachment. Ala(1H-tetrazol-5-yl) = N[C@@H](Cc1nnn[nH]1)C(=O)O; Ms = CS(=O)(=O)*

Key:
[1] = Peptide stability test, Tris buffer (pH 7.0), 60° C. storage, HPLC remaining rate; format: physicochemical; details: 100 μM in Tris buffer pH 7.0
In short: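 Peptides at 100 μM in Tris buffer (pH 7.0) stored 1 or 2 weeks at 60° C.; unstored sample kept at −30° C. as initial reference. Remaining peptide quantified by reversed-phase HPLC at 220 nm (formic acid/acetonitrile gradient, 40° C. column), as water-corrected remaining rate.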

[2] = tested on: rat trigeminal nerve cells; assay: Axon elongation effect on cultured rat trigeminal nerve cells; format: cell-based; details: 1 μM peptide, 24 hours; N=8; Dunnett's test vs control P<0.001; FIG. 5
Method: Rats (Sic: Sprague-Dawley, 17-day-old, including female and male) purchased from Japan SLC, Inc. were euthanized by carbon dioxide gas inhalation and the trigeminal ganglion was harvested. The harvested trigeminal ganglion was washed with Hanks' balanced salt solution (HBSS) and then treated with collagenase A (Roche) for 30 minutes at 37° C. A neuron dispersion (Wako) was then used according to protocol for dispersion of the cells. Debris removal solution (Miltenyi biotec) and Myelin removal beads II (Miltenyi biotec) were used according to protocol to remove the debris and myelin. After suspending the isolated trigeminal nerve cells in culture solution, they were seeded onto a polylysine/laminin-coated 8-well chamber slide (Corning) at 2.5×10^3 cells/well. The culture solution used was Neurobasal-A containing B27 supplement (final concentration: 2%) and GlutaMAX (final concentration: 2 mM) and penicillin/streptomycin (final concentration: 1%). The culturing conditions were a carbon dioxide concentration of 5%, an air concentration of 95%, a humidity of 100% and a temperature of 37° C. […] The control was replaced with peptide-free culture solution. Culture medium replacement was followed by further culturing for 24 hours.
The culture medium was replaced with peptide-containing culture solution, and the rat trigeminal nerve cells cultured for 24 hours were immersed in a 2% paraformaldehyde solution at room temperature for 20 minutes for fixing. The cells were washed with PBS, and then 2% bovine serum albumin containing 0.1% TritonX-100 was added and reaction was conducted for 30 minutes. After washing with PBS, it was reacted with phospho-neurofilament H antibody (Merck, MAB1592-C) specifically recognizing neurofilaments forming the neuron bodies and neurites, for 1 hour at room temperature. After reaction for 1 hour, a fluorescent-labeled secondary antibody (Invitrogen Corp., #A-11031) was reacted at room temperature for 1 hour for fluorescent staining of the sample, and the stained cells were observed under a fluorescent microscope. The stained cell image was captured as an image from the fluorescent microscope and loaded into a computer.
In order to evaluate the extent of neurite formation by the rat trigeminal nerve cells, cells with neurites having lengths of at least twice the cell body diameter in the stained cell image in the computer were counted as neurite-forming cells, and the percentage (%) of this number of cells over the total cell count was calculated (Otori Y. Wei J Y, Barnstable C J. Invest. Ophthalmol Vis Sci (1998) 39, 972-981). The significant difference with respect to the control was determined by Dunnett's test (P<0.001).

PAC1R = target: T1, PAC1R (Homo sapiens, UniProt P41586); assay: cAMP assay in PAC1R high-expressing CHO-K1 cell line; format: cell-based; details: Table 12; cAMP inducing effect, CHO-K1 PAC1R high-expressing cells
T1 construct: host or cells: CHO-K1
T1 sequence (P41586 21-468): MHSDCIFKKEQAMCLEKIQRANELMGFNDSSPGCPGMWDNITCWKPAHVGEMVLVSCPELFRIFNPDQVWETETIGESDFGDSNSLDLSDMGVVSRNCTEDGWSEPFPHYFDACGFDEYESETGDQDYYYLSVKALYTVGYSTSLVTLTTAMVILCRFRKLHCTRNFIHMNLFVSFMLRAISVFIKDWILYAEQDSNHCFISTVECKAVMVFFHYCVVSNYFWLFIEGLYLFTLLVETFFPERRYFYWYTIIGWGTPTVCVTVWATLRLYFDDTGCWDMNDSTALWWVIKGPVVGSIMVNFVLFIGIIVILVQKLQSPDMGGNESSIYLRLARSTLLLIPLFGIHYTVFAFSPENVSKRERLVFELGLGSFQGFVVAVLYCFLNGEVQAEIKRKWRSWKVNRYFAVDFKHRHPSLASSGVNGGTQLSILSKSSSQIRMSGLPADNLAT
Method: The cells were cultured for 18 to 24 hours at 37° C. in a 5% C02 incubator, adhering the cells to the plate. […] A 5-fold dilution series was then prepared with the same Cell assay buffer and used in an assay. The cAMP assay was carried out using a Hit Hunter cAMP Assay for Biologics kit (product of DiscoveRx, Cat. No. 90-0075LM25), according to the included kit instructions. […] Next, the culture medium was removed from the CHO-K1 cell culture plate, washing was performed with PBS, and the peptide-cAMP antibody liquid mixtures were added to the cells and incubated for 30 minutes under a 5% CO2 atmosphere at 37° C. A working detection solution was then added and the culture plate was shielded from light with aluminum foil and incubated at 25° C. for 1 hour. After incubation, Solution A was added and the culture plate was shielded from light with aluminum foil and then incubated at 25° C. for 3 hours. […] The obtained value for the Relative Luminescence Unit (RLU) was analyzed with GraphPad Prism Ver 6.05 (product of Graph Pad) and the EC50 value was calculated for each peptide. […] FIG. 2 and Table 11. […] A 5-fold dilution series was then prepared with the same Cell assay buffer and used in an assay. […] A 5-fold dilution series was then prepared with the same Cell assay buffer and used in an assay.

VPAC1 receptor = target: T2, VPAC1 receptor (UniProt P32241 31-457, limits assumed); assay: cell-based or functional assay
T2 sequence (looked up): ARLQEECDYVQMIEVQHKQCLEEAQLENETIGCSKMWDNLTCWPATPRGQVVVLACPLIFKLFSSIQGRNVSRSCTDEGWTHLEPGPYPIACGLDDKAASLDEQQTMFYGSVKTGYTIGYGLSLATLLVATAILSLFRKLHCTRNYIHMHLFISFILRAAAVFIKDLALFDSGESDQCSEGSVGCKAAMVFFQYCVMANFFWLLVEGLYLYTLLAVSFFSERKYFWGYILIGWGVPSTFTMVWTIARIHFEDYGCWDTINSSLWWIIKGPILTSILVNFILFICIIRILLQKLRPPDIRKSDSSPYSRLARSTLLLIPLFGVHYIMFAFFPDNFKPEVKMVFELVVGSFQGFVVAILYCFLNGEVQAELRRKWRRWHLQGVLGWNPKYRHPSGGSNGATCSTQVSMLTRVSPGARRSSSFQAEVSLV

PAC1 receptor = target: T3, PAC1 receptor (UniProt P41586 21-468, limits assumed); assay: cell-based or functional assay
T3 sequence (looked up): T1 sequence (P41586 21-468)

remaining rate after correction for water, 60° C., 1 week preservation ([1]; Table 7): 97.0%
remaining rate after correction for water, 60° C., 2 weeks preservation ([1]; Table 7): 93.6%
Molecule: CC[C@H](C)[C@H](NC(=O)CNC(=O)[C@H](Cc1nnn[nH]1)NC(=O)[C@H](CO)NC(=O)[C@H](Cc1c[nH]cn1)NS(C)(=O)=O)C(=O)N[C@@H](Cc1ccccc1)C(=O)N[C@H](C(=O)N[C@@H](Cc1nnn[nH]1)C(=O)N[C@@H](CO)C(=O)N[C@@H](Cc1ccc(O)cc1)C(=O)N[C@@H](CO)C(=O)N[C@@H](CCCNC(=N)N)C(=O)N[C@@H](Cc1ccc(O)cc1)C(=O)N[C@@H](CCCNC(=N)N)C(=O)N[C@@H](CCCCN)C(=O)N[C@@H](CCC(N)=O)C(=O)N[C@@H](CC(C)C)C(=O)N[C@@H](C)C(=O)N[C@H](C(=O)N[C@@H](CCCCN)C(=O)N[C@@H](CCCCN)C(=O)N[C@@H](Cc1ccc(O)cc1)C(=O)N[C@@H](CC(C)C)C(=O)N[C@@H](C)C(=O)N[C@@H](C)C(=O)N[C@H](C(=O)N[C@@H](CC(C)C)C(N)=O)C(C)C)C(C)C)[C@@H](C)O [Peptide 12] (Ms-HS[Ala(1H-tetrazol-5-yl)]GIFT[Ala(1H-tetrazol-5-yl)]SYSRYRKQLAVKKYLAAVL-NH2)
axon elongation (percentage of neurite-forming cells) [2]: exhibited axon elongation-promoting effects

remaining rate after correction for water, 60° C., 1 week preservation ([1]; Table 7): 96.7%
remaining rate after correction for water, 60° C., 2 weeks preservation ([1]; Table 7): 90.6%
EC50 (PAC1R): 0.061 nM
Molecule: CC[C@H](C)[C@H](NC(=O)CNC(=O)[C@H](Cc1nnn[nH]1)NC(=O)[C@H](CO)NC(=O)[C@H](Cc1c[nH]cn1)NC(C)=O)C(=O)N[C@@H](Cc1ccccc1)C(=O)N[C@H](C(=O)N[C@@H](Cc1nnn[nH]1)C(=O)N[C@@H](CO)C(=O)N[C@@H](Cc1ccc(O)cc1)C(=O)N[C@@H](CO)C(=O)N[C@@H](CCCNC(=N)N)C(=O)N[C@@H](Cc1ccc(O)cc1)C(=O)N[C@@H](CCCNC(=N)N)C(=O)N[C@@H](CCCCN)C(=O)N[C@@H](CCC(N)=O)C(=O)N[C@@H](C)C(=O)N[C@@H](C)C(=O)N[C@H](C(=O)N[C@@H](CCCCN)C(=O)N[C@@H](CCCCN)C(=O)N[C@@H](Cc1ccc(O)cc1)C(=O)N[C@@H](CC(C)C)C(=O)N[C@@H](C)C(=O)N[C@@H](C)C(=O)N[C@H](C(=O)N[C@@H](CC(C)C)C(N)=O)C(C)C)C(C)C)[C@@H](C)O [Peptide 18] (Ac-HS[Ala(1H-tetrazol-5-yl)]GIFT[Ala(1H-tetrazol-5-yl)]SYSRYRKQAAVKKYLAAVL-NH2)
axon elongation (percentage of neurite-forming cells) [2]: exhibited axon elongation-promoting effects

remaining rate after correction for water, 60° C., 2 weeks preservation ([1]; Table 7-2): 90.1%
Molecule: CC[C@H](C)[C@H](NC(=O)[C@H](C)NC(=O)[C@H](Cc1nnn[nH]1)NC(=O)[C@H](CO)NC(=O)[C@H](Cc1c[nH]cn1)NS(C)(=O)=O)C(=O)N[C@@H](Cc1ccccc1)C(=O)N[C@H](C(=O)N[C@@H](Cc1nnn[nH]1)C(=O)N[C@@H](CO)C(=O)N[C@@H](Cc1ccc(O)cc1)C(=O)N[C@@H](CO)C(=O)N[C@@H](CCCNC(=N)N)C(=O)N[C@@H](Cc1ccc(O)cc1)C(=O)N[C@@H](CCCNC(=N)N)C(=O)N[C@@H](CCCCN)C(=O)N[C@@H](CCC(N)=O)C(=O)N[C@@H](C)C(=O)N[C@@H](C)C(=O)N[C@H](C(=O)N[C@@H](CCCCN)C(=O)N[C@@H](CCCCN)C(=O)N[C@@H](Cc1ccc(O)cc1)C(=O)N[C@@H](CC(C)C)C(=O)N[C@@H](C)C(=O)N[C@@H](C)C(=O)N[C@H](C(=O)N[C@@H](CC(C)C)C(N)=O)C(C)C)C(C)C)[C@@H](C)O [Peptide 31] (Ms-HS[Ala(1H-tetrazol-5-yl)]AIFT[Ala(1H-tetrazol-5-yl)]SYSRYRKQAAVKKYLAAVL-NH2)
axon elongation (percentage of neurite-forming cells) [2]: exhibited axon elongation-promoting effects

EC50 (VPAC1R), cAMP inducing effect (VPAC1 receptor): 0.043 nM
EC50 (PAC1R), cAMP inducing effect (PAC1 receptor): 0.063 nM
B1: Peptide 9 (peptide)
peptide: HSXGIFTXSYSRYRKQLAVKKYLAAVL
modifications: N-terminal acetyl (Ac-); Tz (aspartic acid with carboxyl group replaced by tetrazole) at positions 3 and 8; C-terminal amide (NH2)

EC50 (VPAC1R), cAMP inducing effect (VPAC1 receptor): 0.114 nM
EC50 (PAC1R), cAMP inducing effect (PAC1 receptor): 0.112 nM
B2: Peptide 7 (peptide)
peptide: HSXGIFTXSYSRYRKQLAVKKYLAAVL
modifications: Tz (aspartic acid with carboxyl group replaced by tetrazole) at positions 3 and 8; C-terminal amide (NH2)

EC50 (VPAC1R), cAMP inducing effect (VPAC1 receptor): 0.046 nM
EC50 (PAC1R), cAMP inducing effect (PAC1 receptor): 0.072 nM
B3: Peptide 8 (peptide)
peptide: HSXGIFTXSYSRYRKQXAVKKYLAAVL
modifications: N-terminal acetyl (Ac-); Tz (aspartic acid with carboxyl group replaced by tetrazole) at positions 3 and 8; norleucine at position 17; C-terminal amide (NH2)

EC50 (VPAC1R), cAMP inducing effect (VPAC1 receptor): 0.093 nM
EC50 (PAC1R), cAMP inducing effect (PAC1 receptor): 0.079 nM
B4: Peptide 6 (peptide)
peptide: HSXGIFTXSYSRYRKQXAVKKYLAAVL
modifications: Tz (aspartic acid with carboxyl group replaced by tetrazole) at positions 3 and 8; norleucine at position 17; C-terminal amide (NH2)
